These results are taken from US20250353891A1 (MEDIMMUNE LIMITED, priority 2022, published 2025).

Starred links: 1 amine or outer side, 2 acyl side, 3 side chain; linkers in the order of their positions; H or OH if unused. Non-standard residues stand in square brackets, D forms with d. Residues, ends and D or L forms follow the SMILES beside them. Groups on a side chain read outwards from the residue. *: point of attachment. C20 diacid = O=C(O)CCCCCCCCCCCCCCCCCCC(=O)*; C18 diacid = O=C(O)CCCCCCCCCCCCCCCCC(=O)*; γGlu = O=C(O)[C@H](CCC(=O)[*:2])N[*:1]; αMeF = C[C@](N)(Cc1ccccc1)C(=O)O; AEEA = NCCOCCOCC(=O)O; Aib = CC(C)(N)C(=O)O

Assay [1] concerns the target human glucagon receptor (hGCGR) (Homo sapiens, UniProt P47871). As to the kind of experiment: cAMP production (HTRF) in CHO cells expressing hGCGR. Format: cell-based. Further details: expressed in transfected cells. As to conditions: Table 6, peptides modified at position 17; cAMP in CHO hGCGR cells; geometric mean; read-out: hGluc-R EC50. In outline: (§1)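 Read-out: HTRF cAMP (anti-cAMP cryptate donor, cAMP-d2 acceptor in conjugate/lysis buffer), converted to % Delta F and fitted by 4-parameter logistic for EC50. Cell densities were 1×10^5 cells/mL (hGLP-1R) or 2×10^5 cells/mL (hGCGR). Stimulation lasted 30 min at room temperature.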

In assay [2] the target is human GLP-1 receptor (hGLP-1R) (Homo sapiens, UniProt P43220). As to the kind of experiment: cAMP production (HTRF) in CHO cells expressing hGLP-1R. Format: cell-based. More on the design: expressed in transfected cells. To be noted: for EC50: Table 6, peptides modified at position 17, cAMP in CHO hGLP-1R cells, geometric mean, read-out: hGLP-1R EC50; for % Relative Potency Ratio: Table 6, % GLP-1R activity relative to GLP-1 / % GlucR activity relative to glucagon. Put shortly: as §1
(Cyclic AMP is a second messenger, typically raised through Gs and lowered through Gi signalling.)

human GLP-1 receptor (hGLP-1R), sequence (P43220 24-463): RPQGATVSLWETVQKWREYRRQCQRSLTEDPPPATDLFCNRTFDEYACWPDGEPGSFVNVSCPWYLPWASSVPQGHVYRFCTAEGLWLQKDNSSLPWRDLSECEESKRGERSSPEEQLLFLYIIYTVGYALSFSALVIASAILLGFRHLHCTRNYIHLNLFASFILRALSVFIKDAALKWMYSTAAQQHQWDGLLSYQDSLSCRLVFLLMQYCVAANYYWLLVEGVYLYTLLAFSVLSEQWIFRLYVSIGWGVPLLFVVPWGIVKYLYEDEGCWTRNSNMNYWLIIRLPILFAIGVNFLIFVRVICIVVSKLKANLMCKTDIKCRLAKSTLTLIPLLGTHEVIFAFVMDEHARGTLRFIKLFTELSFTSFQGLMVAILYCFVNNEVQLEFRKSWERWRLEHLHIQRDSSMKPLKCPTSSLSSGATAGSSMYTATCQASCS
human glucagon receptor (hGCGR), sequence (P47871 26-477): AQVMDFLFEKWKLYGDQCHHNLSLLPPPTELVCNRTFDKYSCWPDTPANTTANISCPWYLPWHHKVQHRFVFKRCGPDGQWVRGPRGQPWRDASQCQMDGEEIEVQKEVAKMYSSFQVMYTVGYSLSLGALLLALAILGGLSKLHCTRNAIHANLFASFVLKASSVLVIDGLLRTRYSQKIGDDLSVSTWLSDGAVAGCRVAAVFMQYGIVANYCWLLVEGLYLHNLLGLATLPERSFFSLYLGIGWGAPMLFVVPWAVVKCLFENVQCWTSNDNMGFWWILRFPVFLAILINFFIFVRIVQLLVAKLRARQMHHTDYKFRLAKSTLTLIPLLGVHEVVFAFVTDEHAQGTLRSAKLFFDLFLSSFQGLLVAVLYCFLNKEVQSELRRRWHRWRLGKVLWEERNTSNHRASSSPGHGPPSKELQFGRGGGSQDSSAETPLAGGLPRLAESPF

Consider `CC(C)C[C@H](NC(=O)[C@H](Cc1c[nH]c2ccccc12)NC(=O)[C@H](CCC(N)=O)NC(=O)[C@@H](NC(=O)[C@H](Cc1ccccc1)NC(=O)[C@H](CC(=O)O)NC(=O)[C@H](CCCNC(=N)N)NC(=O)[C@H](C)NC(=O)[C@H](CCCNC(=N)N)NC(=O)[C@H](CCCCNC(=O)COCCOCCNC(=O)COCCOCCNC(=O)CC[C@H](NC(=O)CCCCCCCCCCCCCCCCC(=O)O)C(=O)O)NC(=O)[C@H](CCCNC(=N)N)NC(=O)[C@H](CC(=O)O)NC(=O)[C@H](CC(C)C)NC(=O)[C@](C)(Cc1ccccc1)NC(=O)[C@H](CCCCN)NC(=O)[C@H](CO)NC(=O)[C@@H](NC(=O)[C@H](CC(=O)O)NC(=O)[C@H](CO)NC(=O)[C@@H](NC(=O)[C@H](Cc1ccccc1)NC(=O)[C@@H](NC(=O)CNC(=O)[C@H](CCC(N)=O)NC(=O)C(C)(C)NC(=O)[C@@H](N)Cc1c[nH]cn1)[C@@H](C)O)[C@@H](C)O)C(C)C)C(C)C)C(=O)N[C@@H](CC(C)C)C(=O)NC(C)(C)C(=O)N[C@@H](CCC(=O)O)C(N)=O` [Peptide 473] (H-H[Aib]QGTFTSDVSK[αMeF]LDRK([AEEA-AEEA-γGlu-C18 diacid])RARDFVQWLL[Aib]E-NH2; N-terminus assumed), for which the EC50 in assay [1] was found to be 14.1 pM. In assay [2], the 50% effective concentration (EC50) stood at 11.5 pM and the “% Relative Potency Ratio” value is reported as 2.4.

For `CC(C)C[C@H](NC(=O)[C@H](CC(C)C)NC(=O)[C@H](Cc1c[nH]c2ccccc12)NC(=O)[C@H](CCC(N)=O)NC(=O)[C@@H](NC(=O)[C@H](Cc1ccccc1)NC(=O)[C@H](CC(=O)O)NC(=O)[C@H](CCCNC(=N)N)NC(=O)[C@H](C)NC(=O)[C@H](CCCNC(=N)N)NC(=O)[C@H](CCCCNC(=O)COCCOCCNC(=O)COCCOCCNC(=O)CC[C@H](NC(=O)CCCCCCCCCCCCCCCCC(=O)O)C(=O)O)NC(=O)[C@@H](NC(=O)[C@H](CC(=O)O)NC(=O)[C@H](CC(C)C)NC(=O)[C@](C)(Cc1ccccc1)NC(=O)[C@H](CCCCN)NC(=O)[C@H](CO)NC(=O)[C@@H](NC(=O)[C@H](CC(=O)O)NC(=O)[C@H](CO)NC(=O)[C@@H](NC(=O)[C@H](Cc1ccccc1)NC(=O)[C@@H](NC(=O)CNC(=O)[C@H](CCC(N)=O)NC(=O)C(C)(C)NC(=O)[C@@H](N)Cc1c[nH]cn1)[C@@H](C)O)[C@@H](C)O)C(C)C)[C@@H](C)O)C(C)C)C(=O)N[C@@H](C)C(=O)NC(C)(C)C(=O)NCC(N)=O` [Peptide 474] (H-H[Aib]QGTFTSDVSK[αMeF]LDTK([AEEA-AEEA-γGlu-C18 diacid])RARDFVQWLLA[Aib]G-NH2; N-terminus assumed), the concentration for a half-maximal effect (EC50) in assay [1] was 56.9 pM. For the same compound, in assay [2], the EC50 was determined as 8.04 pM and the “% Relative Potency Ratio” value came to 14.0.

On to `CC(C)C[C@H](NC(=O)[C@H](CC(C)C)NC(=O)[C@H](Cc1c[nH]c2ccccc12)NC(=O)[C@H](CCC(N)=O)NC(=O)[C@@H](NC(=O)[C@H](Cc1ccccc1)NC(=O)[C@H](CC(=O)O)NC(=O)[C@H](CCCNC(=N)N)NC(=O)[C@H](C)NC(=O)[C@H](CCCNC(=N)N)NC(=O)[C@H](CCCCNC(=O)COCCOCCNC(=O)COCCOCCNC(=O)CC[C@H](NC(=O)CCCCCCCCCCCCCCCCCCC(=O)O)C(=O)O)NC(=O)[C@@H](NC(=O)[C@H](CC(=O)O)NC(=O)[C@H](CC(C)C)NC(=O)[C@](C)(Cc1ccccc1)NC(=O)[C@H](CCCCN)NC(=O)[C@H](CO)NC(=O)[C@@H](NC(=O)[C@H](CC(=O)O)NC(=O)[C@H](CO)NC(=O)[C@@H](NC(=O)[C@H](Cc1ccccc1)NC(=O)[C@@H](NC(=O)CNC(=O)[C@H](CCC(N)=O)NC(=O)C(C)(C)NC(=O)[C@@H](N)Cc1c[nH]cn1)[C@@H](C)O)[C@@H](C)O)C(C)C)[C@@H](C)O)C(C)C)C(=O)N[C@@H](C)C(=O)NC(C)(C)C(=O)NCC(N)=O` [Peptide 475] (H-H[Aib]QGTFTSDVSK[αMeF]LDTK([AEEA-AEEA-γGlu-C20 diacid])RARDFVQWLLA[Aib]G-NH2), for which the EC50 in assay [1] came to 61.5 pM; in assay [2] it was 6.75 pM. Further, in assay [2], the “% Relative Potency Ratio” value turned out to be 18.0.

For the compound `CC(C)C[C@H](NC(=O)[C@H](CC(C)C)NC(=O)[C@H](Cc1c[nH]c2ccccc12)NC(=O)[C@H](CCCNC(=N)N)NC(=O)[C@@H](NC(=O)[C@H](Cc1ccccc1)NC(=O)[C@H](CC(=O)O)NC(=O)[C@H](CCC(N)=O)NC(=O)[C@H](C)NC(=O)[C@H](CCCNC(=N)N)NC(=O)[C@H](CCCCNC(=O)COCCOCCNC(=O)COCCOCCNC(=O)CC[C@H](NC(=O)CCCCCCCCCCCCCCCCC(=O)O)C(=O)O)NC(=O)[C@@H](NC(=O)[C@H](CC(=O)O)NC(=O)[C@H](CC(C)C)NC(=O)[C@](C)(Cc1ccccc1)NC(=O)[C@H](CCCCN)NC(=O)[C@H](CO)NC(=O)[C@@H](NC(=O)[C@H](CC(=O)O)NC(=O)[C@H](CO)NC(=O)[C@@H](NC(=O)[C@H](Cc1ccccc1)NC(=O)[C@@H](NC(=O)CNC(=O)[C@H](CCC(N)=O)NC(=O)C(C)(C)NC(=O)[C@@H](N)Cc1c[nH]cn1)[C@@H](C)O)[C@@H](C)O)C(C)C)[C@@H](C)O)C(C)C)C(=O)N[C@@H](C)C(=O)NC(C)(C)C(=O)NCC(N)=O` [Peptide 476] (H-H[Aib]QGTFTSDVSK[αMeF]LDTK([AEEA-AEEA-γGlu-C18 diacid])RAQDFVRWLLA[Aib]G-NH2), the concentration giving a half-maximal response (EC50) in assay [1] came out at 104 pM. For the same compound, in assay [2], the half-maximal effective concentration (EC50) is 57.3 pM and the “% Relative Potency Ratio” value was 3.6.

Take `CC(C)C[C@H](NC(=O)[C@H](Cc1c[nH]c2ccccc12)NC(=O)[C@H](CCCNC(=N)N)NC(=O)[C@@H](NC(=O)[C@H](Cc1ccccc1)NC(=O)[C@H](CC(=O)O)NC(=O)[C@H](CCC(N)=O)NC(=O)[C@H](C)NC(=O)[C@H](CCCNC(=N)N)NC(=O)[C@H](CCCCNC(=O)COCCOCCNC(=O)COCCOCCNC(=O)CC[C@H](NC(=O)CCCCCCCCCCCCCCCCC(=O)O)C(=O)O)NC(=O)[C@@H](NC(=O)[C@H](CC(=O)O)NC(=O)[C@H](CC(C)C)NC(=O)[C@](C)(Cc1ccccc1)NC(=O)[C@H](CCCCN)NC(=O)[C@H](CO)NC(=O)[C@@H](NC(=O)[C@H](CC(=O)O)NC(=O)[C@H](CO)NC(=O)[C@@H](NC(=O)[C@H](Cc1ccccc1)NC(=O)[C@@H](NC(=O)CNC(=O)[C@H](CCC(N)=O)NC(=O)C(C)(C)NC(=O)[C@@H](N)Cc1c[nH]cn1)[C@@H](C)O)[C@@H](C)O)C(C)C)[C@@H](C)O)C(C)C)C(=O)N[C@@H](CC(C)C)C(=O)N[C@@H](CCC(=O)O)C(=O)NC(C)(C)C(=O)N[C@@H](CCCCN)C(N)=O` [Peptide 478] (H-H[Aib]QGTFTSDVSK[αMeF]LDTK([AEEA-AEEA-γGlu-C18 diacid])RAQDFVRWLLE[Aib]K-NH2): the EC50 in assay [1] stood at 190 pM. Moreover, in assay [2], the EC50 stood at 9.18 pM and the “% Relative Potency Ratio” value is 40.9.

Usually EC50 stands for the midpoint of the concentration-response curve.
